Tests used:
Venturia inaequalis = experiment: Venturia test (apple)/protective; format: in vivo; details: application rate 100 g/ha; protective; evaluation 10 days after inoculation
Procedure: (§1) [table] To produce a suitable preparation of active compound, 1 part by weight of active compound is mixed with the stated amounts of solvents and emulsifier, and the concentrate is diluted with water to the desired concentration. To test for protective activity, young plants are sprayed with the preparation of active compound at the stated application rate. After the spray coating has dried on, the plants are inoculated with an aqueous conidia suspension of the apple scab pathogen Venturia inaequalis and then remain in an incubation cabin at about 20° C. and 100% relative atmospheric humidity for 1 day. The plants are then placed in a greenhouse at about 21° C. and a relative atmospheric humidity of about 90%. Evaluation is carried out 10 days after the inoculation. 0% means an efficacy which corresponds to that of the control, whereas an efficacy of 100% means that no infection is observed.

Sphaerotheca fuliginea = experiment: Spaerotheca test (cucumber)/protective; format: in vivo; details: application rate 100 g/ha; protective; evaluation 7 days after inoculation
Procedure: as §1, with “aqueous spore” for “aqueous conidia”, “of Sphaerotheca fuliginea.” for “of the apple scab pathogen Venturia inaequalis and then remain in an incubation cabin at about 20° C. and 100% relative atmospheric humidity for 1 day.”, “about 23°” for “about 21°”, “about 70%.” for “about 90%.”, “out 7” for “out 10”

Alternaria mali = experiment: In vitro test for the ED50 determination in microorganisms; format: cell-based; details: 50% inhibition of fungal growth, 22° C., 3-5 days, photometric at 620 nm
Procedure: A methanolic solution of the active compound to be tested, mixed with emulsifier PS16, is pipetted into the wells of a microtiter plate. After the solvent has evaporated, 200 μl of potato dextrose medium are added to each well. Beforehand, a suitable concentration of spores or mycelium of the fungus to be tested was added to the medium. The resulting concentrations of active compound are 0.1, 1, 10 and 100 ppm. The resulting concentration of the emulsifier is 300 ppm. The plates are then incubated on a shaker at a temperature of 22° C. for 3-5 days, until sufficient growth can be observed in the untreated control. Evaluation is carried out photometrically at a wavelength of 620 nm. The dose of active compound which causes 50% inhibition of fungal growth compared to the untreated control (ED50) is calculated from data measured at different concentrations.

[1] = logP determination by HPLC on reversed-phase column (C 18), pH 2.3; format: physicochemical; details: reversed-phase HPLC column (C 18), HPLC reversed-phase C 18, 43° C.
Procedure: The logP values given in the preparation examples and the tables above are determined in accordance with EEC Directive 79/831 Annex V.A8 by HPLC (High Performance Liquid Chromatography) on a reversed-phase column (C 18). Temperature: 43° C. The determination is carried out in the acidic range at pH 2.3 using the mobile phases 0.1% aqueous phosphoric acid and acetonitrile; linear gradient from 10% acetonitrile to 90% acetonitrile. Calibration is carried out using unbranched alkan-2-ones (having 3 to 16 carbon atoms) with known logP values (determination of the logP values by retention times using linear interpolation between two successive alkanones).

Botrytis cinerea = experiment: Botrytis test (bean)/protective; format: in vivo; details: application rate 500 g/ha; protective; evaluation two days after inoculation
Procedure: [table] To produce a suitable preparation of active compound, 1 part by weight of active compound is mixed with the stated amounts of solvents and emulsifier, and the concentrate is diluted with water to the desired concentration. To test for protective activity, young plants are sprayed with the preparation of active compound at the stated application rate. After the spray coating has dried on, 2 small pieces of agar colonized by Botrytis cinerea are placed onto each leaf. The inoculated plants are placed in a dark chamber at about 20° C. and 100% relative atmospheric humidity. Two days after the inoculation, the size of the infected areas on the leaves is evaluated. 0% means an efficacy which corresponds to that of the control, whereas an efficacy of 100% means that no infection is observed.

Puccinia recondita = experiment: Puccinia test (wheat)/protective; format: in vivo; details: application rate 500 g/ha; protective; evaluation 10 days after inoculation
Procedure: • Solvent: 25 parts by weight of N,N-dimethylacetamide • Emulsifier: 0.6 part by weight of alkylaryl polyglycol ether To produce a suitable preparation of active compound, 1 part by weight of active compound is mixed with the stated amounts of solvent and emulsifier, and the concentrate is diluted with water to the desired concentration. To test for protective activity, young plants are sprayed with the preparation of active compound at the stated application rate. After the spray coating has dried on, the plants are sprayed with a conidia suspension of Puccinia recondita. The plants remain in an incubation cabin at 20° C. and 100% relative atmospheric humidity for 48 hours. The plants are then placed in a greenhouse at a temperature of about 20° C. and a relative atmospheric humidity of 80% to promote the development of rust pustules. Evaluation is carried out 10 days after the inoculation. 0% means an efficacy which corresponds to that of the control, whereas an efficacy of 100% means that no infection is observed.

With `CC(C)CC(C)c1ccccc1NC(=O)c1c(C(F)(F)F)nn(C)c1F` (stereo not shown) [drawing 36] the Efficacy in % (Venturia inaequalis) was 100%.
`CC(C)CC(C)c1ccccc1NC(=O)c1c(C(F)(F)F)nn(C)c1F` (stereo not shown) [drawing 33] showed an Efficacy in % (Sphaerotheca fuliginea) of 100%.
In the case of `CCC(C)(C)CC(C)c1ccccc1NC(=O)c1c(C(F)(F)F)nn(C)c1F` (stereo not shown) [drawing 43], the “ED50 value in ppm” value (Alternaria mali) is reported as <0.1 ppm.
In the case of `CCC(C)(C)CC(C)c1ccccc1NC(=O)c1c(C(F)(F)F)nn(C)c1F` (stereo not shown) [Example 3], the chromatographic logP [1] is reported as 4.45.
For `CC(C)CC(C)c1cc(F)ccc1NC(=O)c1c(C(F)(F)F)nn(C)c1F` (stereo not shown) [Example 5], the chromatographic logP [1] was 3.92.
For `CC(C)CC(C)c1ccccc1NC(=O)c1c(C(F)(F)F)nn(C)c1F` (stereo not shown) [drawing 39], the Efficacy in % (Botrytis cinerea) was 100%.
In the case of `CC(CC(C)(C)C)c1ccccc1NC(=O)c1c(C(F)(F)F)nn(C)c1F` (stereo not shown) [drawing 30], the Efficacy in % (Puccinia recondita) is reported as 100%.
For `CC(CC(C)(C)C)c1ccccc1NC(=O)c1c(C(F)(F)F)nn(C)c1F` (stereo not shown) [drawing 35], the Efficacy in % (Venturia inaequalis) was 100%.
For `CC(C)CC(C)c1ccccc1NC(=O)c1c(C(F)(F)F)nn(C)c1F` (stereo not shown) [drawing 42], the “ED50 value in ppm” value (Alternaria mali) was 0.28 ppm.
For `CC(CC(C)(C)C)c1ccccc1NC(=O)c1c(C(F)(F)F)nn(C)c1F` (stereo not shown) [drawing 41], the “ED50 value in ppm” value (Alternaria mali) was <0.1 ppm.
Compound `CCC(CC(C)C)c1ccccc1NC(=O)c1c(C(F)(F)F)nn(C)c1F` (stereo not shown) [Example 4] has a chromatographic logP [1] of 4.27.
In the case of `CC(C)CC(C)c1ccccc1NC(=O)c1c(C(F)(F)F)nn(C)c1F` (stereo not shown) [Example 2], the chromatographic logP [1] is reported as 3.88.
With `CC(CC(C)(C)C)c1ccccc1NC(=O)c1c(C(F)(F)F)nn(C)c1F` (stereo not shown) [drawing 32] the Efficacy in % (Sphaerotheca fuliginea) was 100%.
For `CC(CC(C)(C)C)c1ccccc1NC(=O)c1c(C(F)(F)F)nn(C)c1F` (stereo not shown) [Example 1, [5-fluoro-1-methyl-3-(trifluoromethyl)pyrazol-4-yl]-N-[2-(1,3,3-trimethylbutyl)phenyl]carbox-amide], the chromatographic logP [1] was 4.14.
In the case of `CCC(C)(C)CC(C)c1ccccc1NC(=O)c1c(C(F)(F)F)nn(C)c1F` (stereo not shown) [drawing 37], the Efficacy in % (Venturia inaequalis) is reported as 99%.
`CC(C)CC(C)c1ccccc1NC(=O)c1c(C(F)(F)F)nn(C)c1F` (stereo not shown) [drawing 31] gave an Efficacy in % (Puccinia recondita) of 100%.
With `CCC(C)(C)CC(C)c1ccccc1NC(=O)c1c(C(F)(F)F)nn(C)c1F` (stereo not shown) [drawing 40] the Efficacy in % (Botrytis cinerea) was 95%.
`CC(CC(C)(C)C)c1ccccc1NC(=O)c1c(C(F)(F)F)nn(C)c1F` (stereo not shown) [drawing 38] gave an Efficacy in % (Botrytis cinerea) of 100%.
In the case of `CCC(C)(C)CC(C)c1ccccc1NC(=O)c1c(C(F)(F)F)nn(C)c1F` (stereo not shown) [drawing 34], the Efficacy in % (Sphaerotheca fuliginea) is reported as 98%.
